Assays:
Assay type in all cases: functional, T cell line
[1] = Induction of anti-CD3/CD28 antibodies-stimulated human T cell activation at 4 uM assessed fold increase in IL-2 secretion measured by ELISA assay
[2] = Induction of anti-CD3/CD28 antibodies-stimulated human T cell activation at 1 uM assessed fold increase in IL-2 secretion measured by ELISA assay
[3] = Induction of anti-CD3/CD28 antibodies-stimulated human T cell activation at 0.3 uM assessed fold increase in IL-2 secretion measured by ELISA assay
[4] = Induction of anti-CD3 antibodies-stimulated human T cell activation at 8 uM assessed fold increase in IL-2 secretion measured by ELISA assay; also: reference of the scale not given here
[5] = Induction of anti-CD3 antibodies-stimulated human T cell activation at 1 uM assessed fold increase in IL-2 secretion measured by ELISA assay; also: reference of the scale not given here
[6] = Induction of anti-CD3/CD28 antibodies-stimulated human T cell activation at 4 uM assessed fold increase in CD25 expression measured by ELISA assay
[7] = Induction of anti-CD3/CD28 antibodies-stimulated human T cell activation at 1 uM assessed fold increase in CD25 expression measured by ELISA assay
[8] = Induction of anti-CD3/CD28 antibodies-stimulated human T cell activation at 0.3 uM assessed fold increase in CD25 expression measured by ELISA assay
[9] = Induction of anti-CD3 antibodies-stimulated human T cell activation at 8 uM assessed fold increase in CD25 expression measured by ELISA assay; also: reference of the scale not given here
[10] = Induction of anti-CD3 antibodies-stimulated human T cell activation at 1 uM assessed fold increase in CD25 expression measured by ELISA assay; also: reference of the scale not given here

| SMILES | fold change (FC) [1] | fold change (FC) [2] | fold change (FC) [3] | fold change (FC) [4] | fold change (FC) [5] | fold change (FC) [6] | fold change (FC) [7] | fold change (FC) [8] | fold change (FC) [9] | fold change (FC) [10] |
| --- | --- | --- | --- | --- | --- | --- | --- | --- | --- | --- |
| Cn1cnnc1[C@@H](F)[C@](C)(F)c1cccc(N2Cc3c(cccc3C(F)(F)F)C2=O)c1 (single isomer, unassigned) | 1.01 | 1.01 | 1.01 | 0.051 | <=0.05 | 1.01 | 1.01 | 1.01 | 0.601 | <=0.6 |
| Cn1cnnc1[C@@H]1C[C@@H]1c1cccc(N2Cc3c(cc(C#N)cc3C(F)(F)F)C2=O)c1 | 2.51 | 1.01 | 1.01 | 0.101 | <=0.05 | 1.01 | 1.01 | 1.01 | 0.801 | 0.601 |
| C[C@H](Sc1nncn1C)c1cccc(NC(=O)c2cc3c(Cl)cccc3[nH]2)c1 | 2.51 | 1.01 | 1.01 | >=0.201 | <=0.05 | 1.01 | 1.01 | <=1 | 0.801 | 0.601 |
| CNS(=O)(=O)c1cc(C(=O)Nc2cccc([C@H](C)Cc3nncn3C)c2)nc(C(F)(F)F)c1 | <=1 | 1.01 | 1.01 | >=0.201 | 0.151 | 1.01 | 1.01 | 1.01 | >=1.001 | 0.801 |
| Cn1cnnc1[C@H]1CC[C@H]1c1cccc(N2Cc3c(cccc3C(F)(F)F)C2=O)c1 (racemic) | 1.01 | 1.01 | <=1 | 0.101 | <=0.05 | 1.01 | <=1 | <=1 | <=0.6 | <=0.6 |
| Cc1[nH]cnc1CC(C)c1cccc(N2Cc3c(cccc3C(F)(F)F)C2=O)c1 (stereo not given) | <=1 | <=1 | <=1 | 0.101 | 0.101 | 1.01 | <=1 | <=1 | <=0.6 | <=0.6 |
| CC(Sc1nncn1C)c1cc(F)cc(N2Cc3c(cccc3C(F)(F)F)C2=O)c1 (stereo not given) | 1.01 | 1.01 | 1.01 | 0.051 | <=0.05 | 1.01 | <=1 | <=1 | 0.601 | 0.801 |
| C[C@H](Sc1nncn1C)c1cccc(NC(=O)c2ccnc(C(F)(F)F)n2)c1 | 1.01 | 1.01 | 1.01 | 0.051 | <=0.05 | 1.01 | 1.01 | 1.01 | 0.801 | 0.601 |
| C[C@H](Cc1nncn1C)c1cc(OC2COC2)nc(N2Cc3c(cccc3C(F)(F)F)C2=O)c1 | 1.01 | 1.01 | 1.01 | >=0.201 | 0.101 | 1.31 | 1.01 | 1.01 | >=1.001 | 0.601 |
| C[C@H](Sc1nncn1C)c1cc(F)cc(N2Cc3c(cccc3C(F)(F)F)C2=O)c1 | <=1 | 1.01 | <=1 | <=0.05 | <=0.05 | 1.01 | 1.01 | 1.01 | 0.801 | <=0.6 |
| Cn1cnnc1C(F)(F)[C@](C)(F)c1cccc(NC(=O)c2nc3c(C(F)(F)F)cccc3[nH]2)c1 | 2.51 | 1.01 | 1.01 | 0.151 | 0.051 | 1.01 | 1.01 | 1.01 | 0.601 | 0.601 |
| C[C@H](Cc1nncn1C)c1cccc(NC(=O)c2cn3ccnc3cn2)c1 | 1.01 | 1.01 | 1.01 | 0.101 | 0.051 | 1.01 | 1.01 | <=1 | 0.801 | 0.601 |
| C[C@H](Sc1nncn1C)c1cccc(NC(=O)c2cc(C(=O)N3C[C@H](O)C[C@@H]3C)ccn2)c1 | >=7.5 | >=7.5 | >=7.5 | <=0.05 | <=0.05 | 1.01 | 1.01 | 1.01 | 0.601 | <=0.6 |
| C[C@H](Cc1nncn1C)c1cccc(NC(=O)c2cccc(C(F)(F)CO)n2)c1 | <=1 | <=1 | <=1 | 0.051 | <=0.05 | >=1.76 | 1.31 | 1.01 | <=0.6 | <=0.6 |
| C[C@H](Cc1nncn1C)c1cc(NC2CCC2)nc(N2Cc3c(cccc3C(F)(F)F)C2=O)c1 | 1.01 | 1.01 | 1.01 | 0.151 | <=0.05 | 1.01 | 1.01 | 1.01 | >=1.001 | 0.601 |
| CNC(=O)COc1ccc2cnc(C(=O)Nc3cccc([C@H](C)Sc4nncn4C)c3)cc2c1 | 1.01 | 1.01 | <=1 | <=0.05 | <=0.05 | 1.01 | 1.01 | 1.01 | 0.801 | <=0.6 |
| C[C@H](Sc1nncn1C)c1cccc(N2Cc3c(ccnc3Cl)C2=O)c1 | 2.51 | <=1 | 1.01 | 0.101 | <=0.05 | >=1.76 | 1.01 | 1.51 | 0.601 | <=0.6 |
| C[C@H](Cc1nncn1C)c1cccc(NC(=O)c2coc(C(F)(F)F)n2)c1 | 1.01 | 1.01 | <=1 | 0.101 | 0.051 | 1.01 | 1.01 | 1.01 | 0.801 | 0.601 |
| Cn1cnnc1C[C@]1(c2cccc(N3Cc4c(cccc4C(F)(F)F)C3=O)c2)C[C@H](CO)C1 | 5 | 2.51 | 1.01 | >=0.201 | 0.101 | 1.51 | 1.51 | 1.31 | >=1.001 | 0.801 |
| Cn1cnnc1CC1(c2cccc(NC(=O)c3ccnc(C(F)(F)F)n3)c2)COC1 | 2.51 | 2.51 | 1.01 | 0.151 | 0.051 | 1.01 | 1.01 | 1.01 | >=1.001 | 0.601 |
| CC(Cc1nncn1C)c1cc(N[C@@H]2CCOC2)nc(N2Cc3c(cccc3C(F)(F)F)C2=O)c1 (single isomer, unassigned) | 1.01 | 1.01 | 1.01 | 0.101 | 0.051 | 1.01 | 1.01 | <=1 | 0.801 | 0.601 |
| C[C@H](Cc1nncn1C)c1cccc(NC(=O)c2ccn3nccc3n2)c1 | 2.51 | 1.01 | 1.01 | 0.151 | 0.051 | 1.01 | 1.01 | 1.01 | >=1.001 | 0.601 |

Source: ChEMBL document CHEMBL5050844 (2019)
